Laboratory results published in patent publication US9340500B2, “Aromatic heterocyclic derivative having TRPV4-inhibiting activity” (SHIONOGI & CO., LTD., priority 2011, dated 2016).
Converted amounts (≈) assume the structure as drawn.

Legend:
human TRPV4 [1] = molecular target: T1, human TRPV4 (Homo sapiens (Human), UniProt Q9HBA0); assay: Test Example 3: measurement of TRPV4 inhibitory activity (Fluo-3, FDSS 3000, 4α-PDD); assay type: cell-based; details: hTRPV4/CHO cells, calculated from IC50 and 4α-PDD EC50
T1 sequence (Q9HBA0 whole entry): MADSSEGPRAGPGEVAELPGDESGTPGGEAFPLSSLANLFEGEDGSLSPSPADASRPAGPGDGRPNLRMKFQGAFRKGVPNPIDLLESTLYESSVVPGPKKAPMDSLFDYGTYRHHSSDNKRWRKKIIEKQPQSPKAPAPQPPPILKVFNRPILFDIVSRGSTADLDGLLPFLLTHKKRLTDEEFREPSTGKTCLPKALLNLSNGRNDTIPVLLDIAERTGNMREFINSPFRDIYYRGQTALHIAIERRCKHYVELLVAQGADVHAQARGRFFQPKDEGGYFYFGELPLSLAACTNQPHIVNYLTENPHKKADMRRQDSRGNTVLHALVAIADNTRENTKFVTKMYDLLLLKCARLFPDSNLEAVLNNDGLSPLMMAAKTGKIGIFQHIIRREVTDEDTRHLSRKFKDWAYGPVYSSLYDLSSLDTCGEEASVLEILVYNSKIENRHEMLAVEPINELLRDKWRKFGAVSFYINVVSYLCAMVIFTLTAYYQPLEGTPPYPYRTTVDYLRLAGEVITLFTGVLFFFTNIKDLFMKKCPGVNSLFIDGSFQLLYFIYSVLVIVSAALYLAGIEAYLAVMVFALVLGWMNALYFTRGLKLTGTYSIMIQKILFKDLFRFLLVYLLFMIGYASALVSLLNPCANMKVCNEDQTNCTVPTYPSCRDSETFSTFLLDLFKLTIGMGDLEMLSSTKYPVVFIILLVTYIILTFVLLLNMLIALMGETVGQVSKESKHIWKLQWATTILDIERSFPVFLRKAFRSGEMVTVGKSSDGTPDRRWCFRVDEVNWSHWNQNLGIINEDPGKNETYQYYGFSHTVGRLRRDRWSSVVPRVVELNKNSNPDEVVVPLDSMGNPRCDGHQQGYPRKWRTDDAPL
Method: (§1) For each compound, TRPV4 inhibitory activity was measured using cells.
(§2) (1) The TRPV4 inhibitory activity was measured using CHO-K1 cells stably expressing human TRPV4 (hTRPV4/CHO cells).
(2) Frozen cells were thawed and subcultured with the medium (MEM-α, 10% FBS, […], 50 unit/mL penicillin, 50 μg/mL streptomycin, 1 mg/mL G418).
(3) The 96-well plates which hTRPV4/CHO cells were seeded at densities of 2×10^4 cells/well in the culture medium and cultured in a CO2 incubator in the presence of 5% CO2 at 37° C. for 24 h was used as assay plates.
(4) The assay plate was washed with assay buffer (Hanks, […], […], pH7.4).
(5) Fluo-3, fluorescent dye for Ca influx assay was added to each well, then the assay plate was incubated in a CO2 incubator in the presence of 5% CO2 at 37° C. for one hour (final conc.; 5 μmmol/L Fluo-3).
(6) The assay plate was washed with the assay buffer, and the buffer was remained at 30 μL/well. Then the assay plate was incubated for 10 min at 37° C.
(7) Diluted compound solution was dispensed to each well in the compound plate, and mixed with built-in Pipette and Mixer of the fluorescence analysis system FDSS 3000 (Hamamatsu Photonics).
(8) 50 μL of 4α-PDD solution (concluding 0.1% Pluronic F-127) was applied to each well of assay plate and mixed.
(9) The fluorescent intensity was measured by FDSS 3000 for 8 min from the point of time addition the compound solution, at Ex 480 nm, Em 540 nm wavelength.
TRPV4 inhibitory activity (Ki value) of a compound was evaluated according to the following procedure.
(10) In the presence of the compound, the difference between maximal and minimal of fluorescent intensity value for 8 min from just before addition of 4α-PDD solution was calculated, and it was referred as Max-Min value. Max-Min value of the Ruthenium Red at 10 μM was defined as 100% inhibitory activity, Max-Min value in the absence of the compound was defined as 0% inhibitory activity. The TRPV4 inhibitory activity of the compound was calculated by the following formula. (1−(Max-Min value of the compound−100% inhibitory activity)/(0% inhibitory activity−100% inhibitory activity))×100 (11) By the following formula, inhibitory activity was calculated at 10 points with three fold serial dilution, in the final concentration of the compound from 10 μmmol/L to 0.5 nmol/L. The IC50 value was calculated by dose-response curve. 100−[(fluorescent intensity in the presence of the compound−fluorescent intensity of back ground)/(total fluorescent intensity−fluorescent intensity of back ground)]×100 (12) In the presence of the compound, activity of 4α-PDD was measured at 9 points with three fold serial dilution from 20 μmol/L. Activity of 4α-PDD was calculated by the following formula. (Max-Min value of the each 4α-PDD concentration−0% activity)/(100% activity−0% activity))×100 (13) Effective activity was calculated in 4α-PDD the above. The EC50 value was calculated by dose-response curve. (14) The Ki value of a compound was calculated by the following formula. Ki (nmol/L)=IC50 value (nmol/L)/([A]/EC50 value (nmol/L)) [A]; Concentration of agonist (nmol/L)

human TRPV4 [2] = molecular target: T1, human TRPV4; assay: Test Example 1: measurement of TRPV4 inhibitory activity (Fluo 4-AM, FLIPR TETRA, 4α-PDD 1 μmol/L); assay type: cell-based; details: hTRPV4/CHO cells; for IC50: 4α-PDD 1 μmol/L
Method: as §1, §2
(2) In the day before the experimental day, frozen cell were thawed and washed with the culture medium (MEM-α, 10% FBS, 2 mmol/L GlutaMax, 50 unit Penicillin, 50 μg/mL Streptomycin). Then cells were suspended in the culture medium.
(3) The 384-well plates which hTRPV4/CHO cells were seeded at densities of 4000 cells/well in the culture medium and cultured in a CO2 incubator in the presence of 5% CO2 at 37° C. for overnight was used as assay plates.
(4) The assay plate was washed with assay buffer (Hanks, 20 mmol/L HEPES, 2.5 mmol/L probenecid, pH7.4), and the buffer were remained at 20 μL/well.
(5) 10 μl of dye loading buffer (9 μmol/L Fluo 4-AM, 0.09% Pluronic F-127/assay buffer) was added to each well, then the assay plate was incubated in a CO2 incubator in the presence of 5% CO2 at 37° C. for one hour. (final 3 μmol/L Fluo4-AM).
(6) The assay plate was washed with the assay buffer, and the buffers were remained at 20 μL/well. Then the assay plate was incubated for 10 min at room temperature.
(7) Diluted compound solution was dispensed to each well in the compound plate, and mixed with built-in Pipette and Mixer of the Fluorescence analysis system FLIPR TETRA (Molecular devices).
(8) After incubation for 5 min, 20 μL of 4α-PDD solution were applied to each well of assay plate and mixed with the FLIPR TETRA. (final 1 μmol/L 4α-PDD)
(9) The fluorescent intensity was measured with FLIPR TETRA system for 10 min from the point of time addition the compound solution, at Ex 470-495 nm, Em 515-575 nm wavelength.
TRPV4 inhibitory activity (IC50 value and Ki value) of a compound was evaluated according to the following procedure.
(10) In the presence of the compound, the difference between maximal and minimal of fluorescent intensity value for 5 min from just before addition of 4α-PDD solution was calculated, and it was referred as Max-Min value. Max-Min value of the Ruthenium Red at 20 μM was defined as 100% inhibitory activity, Max-Min value in the absence of the compound was defined as 0% inhibitory activity. The TRPV4 inhibitory activity of the compound was calculated by the following formula. (1−(Max-Min value of the compound−100% inhibitory activity)/(0% inhibitory activity−100% inhibitory activity))×100 (11) Inhibitory activity was calculated at 10 points with three fold serial dilution, in the final concentration of the compound from 10 μmmol/L to 0.5 nmol/L, the IC50 value was calculated by logistic approximation method. (12) In the absence of the compound, the fluorescent intensity was measured as the same method with 10, 1, 0.5, 0.2, and 0 μmol/L as final concentration of 4α-PDD. The difference of minimal and maximal fluorescent intensity value for 5 min from just before addition of 4α-PDD solution was calculated, and it was referred as Max-Min value. Max-Min value of the 4α-PDD at 10 μmol/L was defined as 100% activity, Max-Min value in the absence of 4α-PDD was defined as 0% activity. The TRPV4 activity of each concentration of 4α-PDD was calculated by the following formula. (Max-Min value of the each 4α-PDD concentration−0% activity)/(100% activity−0% activity))×100 (13) Effective activity was calculated in 5 concentrations of 4α-PDD the above. The EC50 value was calculated by logistic approximation method. The Ki value of a compound was calculated by the following formula. Ki (nmol/L)=IC50 value (nmol/L)/(1+[…] (test 4α-PDD concentration (nmol/L)/EC50 value (nmol/L))

Solubility test = assay type: physicochemical; details: fassgf or other biorelevant, kinetic from dmso stock, artificial intestinal juice pH 6.8, 16 hours at 25° C.
Method: The solubility of each compound is determined under 1% DMSO addition conditions. A 10 mmol/L solution of the compound is prepared with DMSO, and 6 μL of the compound solution is added to 594 μL of an artificial intestinal juice (water and 118 mL of 0.2 mol/L NaOH reagent are added to 250 mL of 0.2 mol/L potassium dihydrogen phosphate reagent to reach 1000 mL) with a pH of 6.8. The mixture is left standing for 16 hours at 25° C., and the mixture is vacuum-filtered. The filtrate is two-fold diluted with methanol/water=1/1, and the compound concentration in the filtrate is measured with HPLC or LC/MS/MS by the absolute calibration method.

Ki (human TRPV4 [1])	IC50 (human TRPV4 [2])	SMILES	other results
1060 nM	2300 nM	Cc1c(C(=O)Nc2cccc(C(F)(F)F)c2)cc(-c2ccccc2)n1CCCO [Compound I-006]	–
1440 nM	2600 nM	CC(=O)N1CCN(CCCn2c(-c3ccccc3)cc(C(=O)Nc3cccc(C(F)(F)F)c3)c2C)CC1 [Compound I-015]	–
1130 nM	3200 nM	CC(=O)NCCCn1c(-c2ccccc2)cc(C(=O)Nc2cccc(C(F)(F)F)c2)c1C [Compound I-025]	–
936 nM	1800 nM	COC(=O)NCCCn1c(-c2ccccc2)cc(C(=O)Nc2cccc(C(F)(F)F)c2)c1C [Compound I-027]	–
1710 nM	3800 nM	O=C(Nc1cccc(C(F)(F)F)c1)c1cc(-c2ccccc2)n(CCCN2CCOCC2)c1C(F)(F)F [Compound I-028]	–
1610 nM	640 nM	Cc1c(C(=O)Nc2cccc(C(F)(F)F)c2)cc(-c2ccccc2)n1CCCN(C)CC(C)C [Compound I-032]	–
418 nM	240 nM	Cc1c(C(=O)Nc2cccc(C(F)(F)F)c2)cc(-c2ccccc2)n1CCCN(C)C(=O)C1CCCC1 [Compound I-049]	–
984 nM	–	Cc1c(C(=O)Nc2cccc(C(F)(F)F)c2)cc(-c2ccccc2)n1CCCN(C)C(=O)c1ccc2ccccc2n1 [Compound I-055]	–
560 nM	–	CC(=O)Nc1ccc(C(=O)N(C)CCCn2c(-c3ccccc3)cc(C(=O)Nc3cccc(C(F)(F)F)c3)c2C)cc1 [Compound I-056]	–
1790 nM	–	CC(=O)N1CCC(C(=O)N(C)CCCn2c(-c3ccccc3)cc(C(=O)Nc3cccc(C(F)(F)F)c3)c2C)CC1 [Compound I-057]	–
1650 nM	–	Cc1c(C(=O)Nc2cccc(C(F)(F)F)c2)cc(-c2ccccc2)n1CCCN(C)C(=O)c1ccc2occc2c1 [Compound I-058]	–
472 nM	–	Cc1c(C(=O)Nc2cccc(C(F)(F)F)c2)cc(-c2ccccc2)n1CCCN(C)C(=O)C1CCC1 [Compound I-059]	–
1350 nM	–	Cc1c(C(=O)Nc2cccc(C(F)(F)F)c2)cc(-c2ccccc2)n1CCCN(C)C(=O)c1ccc(N(C)C)cc1 [Compound I-060]	–
1700 nM	–	Cc1c(C(=O)Nc2cccc(C(F)(F)F)c2)cc(-c2ccccc2)n1CCCN(C)C(=O)c1csc(-c2ccccc2)n1 [Compound I-061]	–
1390 nM	–	Cc1c(C(=O)Nc2cccc(C(F)(F)F)c2)cc(-c2ccccc2)n1CCCN(C)C(=O)c1csc(-c2cccs2)n1 [Compound I-062]	–
251 nM	510 nM	Cc1c(C(=O)Nc2cccc(C(F)(F)F)c2)cc(-c2ccccc2)n1CCCN(C)C(=O)c1ccno1 [Compound I-063]	–
713 nM	–	Cc1c(C(=O)Nc2cccc(C(F)(F)F)c2)cc(-c2ccccc2)n1CCCN(C)C(=O)C(Cl)(Cl)Cl [Compound I-064]	–
850 nM	–	COc1ccc(OC)c(CC(=O)N(C)CCCn2c(-c3ccccc3)cc(C(=O)Nc3cccc(C(F)(F)F)c3)c2C)c1 [Compound I-065]	–
662 nM	–	Cc1c(C(=O)Nc2cccc(C(F)(F)F)c2)cc(-c2ccccc2)n1CCCN(C)C(=O)c1cnc2ccccc2n1 [Compound I-066]	–
2370 nM	–	Cc1c(C(=O)Nc2cccc(C(F)(F)F)c2)cc(-c2ccccc2)n1CCCN(C)C(=O)C(=O)c1c[nH]c2ccccc12 [Compound I-067]	–
1010 nM	–	Cc1c(C(=O)Nc2cccc(C(F)(F)F)c2)cc(-c2ccccc2)n1CCCN(C)C(=O)C1CCOCC1 [Compound I-068]	–
816 nM	–	Cc1c(C(=O)Nc2cccc(C(F)(F)F)c2)cc(-c2ccccc2)n1CCCN(C)C(=O)c1cccc(N(C)C)c1 [Compound I-069]	–
1680 nM	590 nM	CC(=O)N(C)CCCn1c(-c2ccccc2)cc(C(=O)Nc2cccc(C(F)(F)F)c2)c1C [Compound I-070]	–
–	340 nM	Cc1c(C(=O)Nc2cccc(C(F)(F)F)c2)cc(-c2ccccn2)n1CCCN1CCOCC1 [Compound I-073]	solubility at 16 h (Solubility test; artificial intestinal juice (phosphate buffer) with 1% DMSO): 28.9 µM (≈ 13.7 µg/mL); Ki (human TRPV4 [2]; calculated from IC50 and 4α-PDD EC50): 160 nM
1610 nM	3900 nM	Cc1c(NC(=O)Nc2cccc(C(F)(F)F)c2)cc(-c2ccccc2)n1CCCN1CCOCC1 [Compound I-081]	–
–	–	Cc1c(C(=O)Nc2cccc(C(F)(F)F)c2)nc(-c2ccccc2)n1CCCN1CCOCC1 [Compound I-087]	solubility at 16 h (Solubility test; artificial intestinal juice (phosphate buffer), 1% DMSO): 5.2 µM (≈ 2.46 µg/mL)

SMILES	Ki (human TRPV4 [1])	IC50 (human TRPV4 [2])	other results
Cc1c(C(=O)Nc2cccc(C(F)(F)F)c2)cc(-c2ccccc2)n1CCCN1CCCCC1 [Compound I-008]	327 nM	82 nM	–
COCCCn1c(-c2ccccc2)cc(C(=O)Nc2cccc(C(F)(F)F)c2)c1C [Compound I-010]	714 nM	800 nM	–
Cc1c(C(=O)Nc2ccc(C(F)(F)F)cc2)cc(-c2ccccc2)n1CCCN1CCOCC1 [Compound I-024]	755 nM	340 nM	–
Cc1c(C(=O)Nc2cccc(C(F)(F)F)c2)cc(-c2ccccc2)n1CCN1CCOCC1 [Compound I-083]	443 nM	400 nM	–
